From ChEMBL document CHEMBL1147037 (J Biol Chem, 2007)

Columns and labels:
Mu-type opioid receptor [1] = target: T1, Mu-type opioid receptor (Homo sapiens, UniProt P35372); conditions: HEK293-A, at 100 µM
Mu-type opioid receptor [2] = target: T1, Mu-type opioid receptor; assay: Displacement of [3H]naloxone from human mu poioid receptor expressed in HEK293 cells; format: cell-based
Mu-type opioid receptor [3] = target: T1, Mu-type opioid receptor; assay: Activation of human mu opioid receptor expressed in HEK293a cells co-expressing YFP-labelled alphai1 and CFP-labelled beta1gamma2 Gi subunits assessed as Gi protein activation by fluorescence resonance energy transfer; format: cell-based, HEK293-A
Mu-type opioid receptor [4] = target: T1, Mu-type opioid receptor; assay: Activation of human mu opioid receptor expressed in HEK293a cells coexpressing YFP-labelled alphai1 and CFP-labelled beta-1-gamma-2 Gi subunits assessed as decrease in fluorescence resonance energy transfer signal at 10 uM relative to morphine; format: cell-based; conditions: HEK293-A

T1 sequence (P35372 whole entry): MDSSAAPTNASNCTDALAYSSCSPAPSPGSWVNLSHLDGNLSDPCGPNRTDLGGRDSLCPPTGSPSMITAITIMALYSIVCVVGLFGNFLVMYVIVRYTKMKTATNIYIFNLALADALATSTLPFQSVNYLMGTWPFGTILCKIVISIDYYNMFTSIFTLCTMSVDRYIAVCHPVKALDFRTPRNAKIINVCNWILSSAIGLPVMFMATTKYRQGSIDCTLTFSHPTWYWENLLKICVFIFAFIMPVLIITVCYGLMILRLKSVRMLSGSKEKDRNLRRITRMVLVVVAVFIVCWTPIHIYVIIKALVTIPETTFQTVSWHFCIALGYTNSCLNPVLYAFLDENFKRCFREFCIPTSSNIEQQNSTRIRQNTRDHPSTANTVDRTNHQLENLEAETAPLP

## COc1ccc(C[C@@H]2c3cc(O)c(OC)cc3CCN2C)cc1O
Mu-type opioid receptor [1]
  Emax: 15.9%

## COC1=CC=C2[C@H]3Cc4ccc(OC)c5c4[C@@]2(CCN3C)[C@H]1O5 [THEBAINE]
Mu-type opioid receptor [2]
  Ki: 7400 nM
Mu-type opioid receptor [3]
  EC50: 5600 nM
Mu-type opioid receptor [1]
  Emax: 76.3%

## COc1ccc2c3c1O[C@H]1C(=O)C=C[C@H]4[C@@H](C2)N(C)CC[C@]314 [CODEINONE]
Mu-type opioid receptor [2]
  Ki: 459 nM
Mu-type opioid receptor [3]
  EC50: 294 nM
Mu-type opioid receptor [4]
  Emax: 100%

## COC1=C[C@]23CCN(C)[C@H](Cc4ccc(OC)c(O)c42)C3=C[C@@H]1O
Mu-type opioid receptor [1]
  Emax: 17.7%

## COC1=CC=C2[C@H]3Cc4ccc(O)c5c4[C@@]2(CCN3C)[C@H]1O5 [ORIPAVINE]
Mu-type opioid receptor [2]
  Ki: 286 nM
Mu-type opioid receptor [3]
  EC50: 277 nM
Mu-type opioid receptor [4]
  Emax: 100%

## CN1CC[C@]23c4c5ccc(O)c4O[C@H]2C(=O)C=C[C@H]3[C@H]1C5 [MORPHINONE]
Mu-type opioid receptor [2]
  Ki: 146 nM
Mu-type opioid receptor [3]
  EC50: 28 nM
Mu-type opioid receptor [4]
  Emax: 100%

## COC1=C[C@]23CCN(C)[C@H](Cc4ccc(OC)c(O)c42)C3=CC1=O [SALUTARIDINE]
Mu-type opioid receptor [2]
  Ki: 34600 nM
Mu-type opioid receptor [3]
  EC50: 32500 nM
Mu-type opioid receptor [1]
  Emax: 54.4%
